The pEC50 is the negative decadic logarithm of the EC50, by convention in mol/L. The pIC50 is the IC50 on a negative log10 scale, so that one unit is a factor of ten.

pEC50, pIC50: −log10 of the molar value.

Experiment [1] concerns endogenous cellular STAT1 (phosphorylated at Tyr701) in NCI-H1373 cells. Description: Phospho-STAT1 (Tyr701) LANCE Ultra TR-FRET Detection Assay. Format: cell-based. The conditions noted are these: Homo sapiens, NCI-H1373, 48 h, phospho-STAT1 (Tyr701) induction, read-out: NH1373 pSTAT1 EC50. (In general: Time-resolved FRET reads energy transfer from a long-lived donor to a nearby acceptor.)

A further experiment concerns the target T1, PARP7 (Homo sapiens, UniProt Q7Z3E1).
T1 sequence (Q7Z3E1 1-657): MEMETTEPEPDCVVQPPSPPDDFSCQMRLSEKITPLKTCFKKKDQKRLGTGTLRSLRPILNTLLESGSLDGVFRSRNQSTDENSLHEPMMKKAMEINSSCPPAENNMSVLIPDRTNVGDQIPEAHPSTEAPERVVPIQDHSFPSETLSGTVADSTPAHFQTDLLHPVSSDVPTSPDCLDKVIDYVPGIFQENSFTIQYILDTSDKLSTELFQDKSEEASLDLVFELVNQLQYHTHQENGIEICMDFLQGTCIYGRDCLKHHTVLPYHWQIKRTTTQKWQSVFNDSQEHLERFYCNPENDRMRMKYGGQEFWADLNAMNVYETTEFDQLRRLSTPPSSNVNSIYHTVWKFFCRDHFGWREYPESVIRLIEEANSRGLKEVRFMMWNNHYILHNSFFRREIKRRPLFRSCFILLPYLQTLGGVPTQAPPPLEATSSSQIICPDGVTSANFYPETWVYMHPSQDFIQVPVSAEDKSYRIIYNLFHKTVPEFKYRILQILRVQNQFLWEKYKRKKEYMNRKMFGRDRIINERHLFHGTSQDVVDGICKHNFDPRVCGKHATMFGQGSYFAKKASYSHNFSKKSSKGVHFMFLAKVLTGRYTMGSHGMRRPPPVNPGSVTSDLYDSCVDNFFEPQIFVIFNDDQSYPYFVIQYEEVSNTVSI
Kind of experiment: Probe Displacement Assay for PARP7 (MSD electrochemiluminescent, biotinylated probe RBNO11147). The conditions noted are these: displacement of biotinylated probe RBNO11147 from PARP7 NAD+-binding site; read-out: MSD ProbeDisp PARP7 IC50.

Experimental for PARP7: Displacement of a biotinylated probe (RBNO11147; Wigle et al., Cell Chemical Biology, 2020, pp. 877-887) from the PARP7 NAD+-binding site was measured in vitro using a Mesoscale Discovery electrochemiluminescent assay. […] Next, 10 ml of 10 nM PARP7 protein incubated for 1 hour at room temperature with a dose response curve of each test compound in a Greiner LDV polypropylene plate (#781201) is added to the MSD plate containing the immobilized probe. The interaction is allowed to reach equilibrium for 1.5 hours, and then 10 ml of SULFO-TAG labeled anti-GST antibody (Cat #R32AA-1) is added to each well and allowed to incubate for an additional 1.5 hours at room temperature. Finally, 10 ml of MSD read buffer T (4×, Cat. #R92C-1) is added to each well using a Bravo liquid handler to prevent air bubbles in the wells, and the plates are subsequently read in an MSD instrument. Light intensity is then measured to quantify the amount of PARP7 bound to the immobilized probe on the plate.

Turning to `C[C@@H](CCCn1ccc2cc(-c3ncc(C(F)(F)F)cn3)c(F)c(F)c2c1=O)Nc1cn[nH]c(=O)c1C(F)(F)F` [Example 20], the pEC50 in experiment [1] is 7.83. The pIC50 at PARP7 is 9.52.

For the compound `C[C@@H](CCCn1ccc2cc(-c3ccc(C(F)(F)F)cn3)ncc2c1=O)Nc1cn[nH]c(=O)c1C(F)(F)F` [Example 13, 2-[(4S)-4-[[6-oxo-5-(trifluoromethyl)-1H-pyridazin-4-yl]amino]pentyl]-6-[5 (trifluoromethyl)-2-pyridyl]-2,7-naphthyridin-1-one], the pEC50 in experiment [1] was 5.00. Moreover, the pIC50 at PARP7 is 8.43.

`C[C@@H](CCCn1ccc2cc(-c3ccc(OC(F)(F)F)cn3)c(F)cc2c1=O)Nc1cn[nH]c(=O)c1C(F)(F)F` [Example 32, 7-fluoro-2-[(4S)-4-[[6-oxo-5-(trifluoromethyl)-1H-pyridazin-4-yl]amino]pentyl]-6-[5-(trifluoromethoxy)-2-pyridyl]isoquinolin-1-one]: the pEC50 in experiment [1] is 6.73. For the same compound, the pIC50 on PARP7 was 8.59.

On to `O=c1[nH]ncc(N[C@H](CCCn2ccc3cc(-c4ncc(C(F)(F)F)cn4)c(F)cc3c2=O)COC(F)F)c1C(F)(F)F` [Example 168, 2-[(4R)-5-(difluoromethoxy)-4-[[6-oxo-5-(trifluoromethyl)-1H-pyridazin-4-yl]amino]pentyl]-7-fluoro-6-[5-(trifluoromethyl)pyrimidin-2-yl]isoquinolin-1-one], for which, in experiment [1], the pEC50 is 8.88. Besides, at PARP7, the pIC50 was 9.59.

In the case of `O=c1[nH]ncc(N2C[C@H]3C[C@H]3[C@H]2CCCn2ccc3nc(-c4ccc(C(F)(F)F)cn4)ccc3c2=O)c1C(F)(F)F` [Example 47, 6-[3-[(1R,2R,5S)-3-[6-oxo-5-(trifluoromethyl)-1H-pyridazin-4-yl]-3-azabicyclo[3.1.0]hexan-2-yl]propyl]-2-[5-(trifluoromethyl)-2-pyridyl]-1,6-naphthyridin-5-one], the pEC50 in experiment [1] was 5.00. In addition, the pIC50 on PARP7 was 8.90.

For `C[C@@H](CCCn1ccc2cc(-c3ncc(C(F)(F)F)cn3)cnc2c1=O)Nc1cn[nH]c(=O)c1C(F)(F)F` [Example 12, 7-[(4S)-4-[[6-oxo-5-(trifluoromethyl)-1H-pyridazin-4-yl]amino]pentyl]-3-[5-(trifluoromethyl)pyrimidin-2-yl]-1,7-naphthyridin-8-one], in experiment [1], the pEC50 was 5.00. At PARP7, the pIC50 is 7.64.

Take `Nc1nc(-c2cc3ccn(CCC[C@H](COC(F)F)Nc4cn[nH]c(=O)c4C(F)(F)F)c(=O)c3cc2F)ncc1C(F)(F)F` [Example 379, (R)-6-(4-amino-5-(trifluoromethyl)pyrimidin-2-yl)-2-(5-(difluoromethoxy)-4-((6-oxo-5-(trifluoromethyl)-1,6-dihydropyridazin-4-yl)amino)pentyl)-7-fluoroisoquinolin-1(2H)-one]: in experiment [1], the pEC50 was 8.61. Further, on PARP7, the pIC50 was 9.85.

Take `C[C@@H](CCCn1ccc2cc(-c3ncc(C(F)F)cn3)c(F)cc2c1=O)Nc1cn[nH]c(=O)c1C(F)(F)F` [Example 76, 6-[5-(difluoromethyl)pyrimidin-2-yl]-7-fluoro-2-[(4S)-4-[[6-oxo-5-(trifluoromethyl)-1H-pyridazin-4-yl]amino]pentyl]isoquinolin-1-one]: the pEC50 in experiment [1] is 7.67. In addition, the pIC50 at PARP7 was 9.39.

Turning to `C[C@@H](CCCn1ccc2c(F)c(-c3ccc(C(F)(F)F)cn3)ccc2c1=O)Nc1cn[nH]c(=O)c1C(F)(F)F` [Example 10, 5-fluoro-2-[(4S)-4-[[6-oxo-5-(trifluoromethyl)-1H-pyridazin-4-yl]amino]pentyl]-6-[5-(trifluoromethyl)-2-pyridyl]isoquinolin-1-one], in experiment [1], the pEC50 was 6.54. The pIC50 on PARP7 is 9.15.

Consider `C[C@@H](CCCn1ccc2cc(-c3cc4ccccn4n3)c(F)cc2c1=O)Nc1cn[nH]c(=O)c1C(F)(F)F` [Example 304, (S)-7-fluoro-2-(4-((6-oxo-5-(trifluoromethyl)-1,6-dihydropyridazin-4-yl)amino)pentyl)-6-(pyrazolo[1,5-a]pyridin-2-yl)isoquinolin-1(2H)-one], for which the pEC50 in experiment [1] is 7.59. In addition, the pIC50 on PARP7 is 9.70.

These data come from US12459922B2 (Gilead Sciences, Inc., priority 2022, dated 2025).
